Data published in PubChem BioAssay (NCI).
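Method: 48-hour compound exposure of cells in 96-well plates, five concentrations, linear interpolation of endpoints. At the TGI there is no net growth.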

Experiments:
Experiment in all cases: inhibition of tumour cell growth, NCI panel, 48 h
[1] = test system: UO-31 renal
[2] = test system: HCC-2998 colon
[3] = test system: OVCAR-8 ovarian
[4] = test system: MALME-3M melanoma
[5] = test system: TK-10 renal
[6] = test system: A549 NSCLC
[7] = test system: SN12C renal
[8] = test system: SK-MEL-5 melanoma
[9] = test system: M14 melanoma
[10] = test system: SR leukemia
[11] = test system: EKVX NSCLC
[12] = test system: SNB-78 CNS
[13] = test system: OVCAR-4 ovarian
[14] = test system: COLO 205 colon
[15] = test system: A498 renal
[16] = test system: DMS 273 small cell lung
[17] = test system: LOX IMVI melanoma
[18] = test system: HCT-15 colon
[19] = test system: OVCAR-5 ovarian
[20] = test system: SNB-19 CNS
[21] = test system: HOP-18 NSCLC
[22] = test system: DMS 114 small cell lung
[23] = test system: NCI-H23 lung
[24] = test system: MOLT-4 leukemia
[25] = test system: SF-268 CNS
[26] = test system: HT29 colon
[27] = test system: RXF-631 renal
[28] = test system: KM12 colon
[29] = test system: LXFL 529 NSCLC
[30] = test system: CCRF-CEM leukemia
[31] = test system: SK-OV-3 ovarian
[32] = test system: HL-60(TB) leukemia
[33] = test system: ACHN renal
[34] = test system: OVCAR-3 ovarian
[35] = test system: IGROV1 ovarian
[36] = test system: SW-620 colon
[37] = test system: SNB-75 CNS
[38] = test system: SF-295 CNS
[39] = test system: K-562 leukemia
[40] = test system: NCI-H460 lung
[41] = test system: M19-MEL melanoma
[42] = test system: RPMI-8226 leukemia
[43] = test system: SF-539 CNS
[44] = test system: DLD-1 colon
[45] = test system: NCI-H226 lung
[46] = test system: U251 CNS
[47] = test system: RXF 393 renal
[48] = test system: UACC-62 melanoma
[49] = test system: 786-0 renal
[50] = test system: SK-MEL-28 melanoma
[51] = test system: HOP-62 NSCLC
[52] = test system: HCT-116 colon
[53] = test system: UACC-257 melanoma
[54] = test system: CAKI-1 renal
[55] = test system: KM20L2 colon
[56] = test system: SK-MEL-2 melanoma
[57] = test system: HOP-92 NSCLC

Measured: TGI

O=C1C2c3[nH]c4ccccc4c3C3CCCCC3C2C(=O)N1c1ccccc1 (configuration not stated)
52.4 µM: [31]
62.3 µM: [47]
32.9 µM: [37]
95.2 µM: [21]
not listed: [51] | [52] | [53] | [54] | [55] | [56] | [57]
> 100 µM: all other assays above

NS(=O)(=O)c1cc2c(cc1Cl)NC(/C(=N/NC(=O)c1ccncc1)C1C(=O)NC(=O)NC1=O)=NS2(=O)=O
not listed: [7] | [10] | [21] | [23] | [25] | [26] | [37] | [45] | [47] | [50]
> 100 µM: all other assays above
